Experimental data reported in PubChem BioAssay AID256 (DTP/NCI, 2004).
Inconclusive results and toxic doses are left out. Rule for the calls: active = survival T/C of 150% or more; inactive = T/C below 125% in these data.

Test system: CD2F1 mice, L1210 leukemia ip, survival T/C
Assay: NCI In Vivo Anticancer Drug Screen. Data for tumor model L1210 Leukemia (intraperitoneal) in CD2F1 (CDF1) mice
Conditions: higher = longer survival
Method in brief: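 Read-out first: treated-group measurement over vehicle-control measurement, expressed as a ratio. Animals bore a transplanted tumor line and were dosed with compound or vehicle.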

[1] = endpoint: mean survival time, dose: 100.0 mg/kg/injection, schedule: Q01DX009 (ip), vehicle: saline with Tween-80
[2] = endpoint: mean survival time, dose: 100.0 mg/kg/injection, schedule: Q04DX003 (ip), vehicle: saline with Tween-80
[3] = endpoint: mean survival time, dose: 200.0 mg/kg/injection, schedule: Q04DX003 (ip), vehicle: saline with Tween-80
[4] = endpoint: mean survival time, dose: 100.0 mg/kg/injection, schedule: Q01DX009 (ip), vehicle: saline
[5] = endpoint: mean survival time, dose: 200.0 mg/kg/injection, schedule: Q01DX009 (ip), vehicle: saline
[6] = endpoint: mean survival time, dose: 400.0 mg/kg/injection, schedule: Q01DX009 (ip), vehicle: saline
[7] = endpoint: mean survival time, dose: 400.0 mg/kg/injection, schedule: Q04DX003 (ip), vehicle: saline with Tween-80

Measured: T/C

CC1=NNC(=O)C1CCO (stereo unspecified)
inactive: endpoint: median survival time, dose: 25.0 mg/kg/injection, schedule: Q01DX009 (ip), vehicle: Klucel (hydroxypropylcellulose) (HPC) 103 % of control | endpoint: median survival time, dose: 50.0 mg/kg/injection, schedule: Q01DX009 (ip), vehicle: Klucel (hydroxypropylcellulose) (HPC) 100 % of control | endpoint: median survival time, dose: 100.0 mg/kg/injection, schedule: Q01DX009 (ip), vehicle: Klucel (hydroxypropylcellulose) (HPC) 98 % of control | endpoint: median survival time, dose: 200.0 mg/kg/injection, schedule: Q01DX009 (ip), vehicle: Klucel (hydroxypropylcellulose) (HPC) 102 % of control | endpoint: median survival time, dose: 400.0 mg/kg/injection, schedule: Q01DX009 (ip), vehicle: Klucel (hydroxypropylcellulose) (HPC) 103 % of control | endpoint: median survival time, dose: 800.0 mg/kg/injection, schedule: Q01DX009 (ip), vehicle: Klucel (hydroxypropylcellulose) (HPC) 104 % of control

C[N+](C)(C)Cc1ccccc1/C(=N\O)c1ccccc1
inactive: endpoint: mean survival time, dose: 5.0 mg/kg/injection, schedule: Q01DX009 (ip), vehicle: saline 109 % of control | endpoint: mean survival time, dose: 5.0 mg/kg/injection, schedule: Q04DX003 (ip), vehicle: saline 116 % of control | endpoint: mean survival time, dose: 10.0 mg/kg/injection, schedule: Q01DX009 (ip), vehicle: saline 100 % of control | endpoint: mean survival time, dose: 10.0 mg/kg/injection, schedule: Q04DX003 (ip), vehicle: saline 98 % of control | endpoint: mean survival time, dose: 20.0 mg/kg/injection, schedule: Q01DX009 (ip), vehicle: saline 91 % of control | endpoint: mean survival time, dose: 20.0 mg/kg/injection, schedule: Q04DX003 (ip), vehicle: saline 89 % of control

O=C(/C=C/c1cccnc1)/C=C/c1cccnc1
inactive: endpoint: mean survival time, dose: 6.25 mg/kg/injection, schedule: Q01DX009 (ip), vehicle: other 105 % of control | endpoint: mean survival time, dose: 12.5 mg/kg/injection, schedule: Q01DX009 (ip), vehicle: other 105 % of control | endpoint: mean survival time, dose: 12.5 mg/kg/injection, schedule: Q04DX003 (ip), vehicle: acetone 104 % of control | endpoint: mean survival time, dose: 25.0 mg/kg/injection, schedule: Q01DX009 (ip), vehicle: other 107 % of control | endpoint: mean survival time, dose: 25.0 mg/kg/injection, schedule: Q04DX003 (ip), vehicle: acetone 103 % of control | endpoint: median survival time, dose: 3.13 mg/kg/injection, schedule: Q01DX005 (ip), vehicle: Klucel (hydroxypropylcellulose) (HPC) 102 % of control | endpoint: median survival time, dose: 6.25 mg/kg/injection, schedule: Q01DX005 (ip), vehicle: Klucel (hydroxypropylcellulose) (HPC) 97 % of control | endpoint: median survival time, dose: 12.5 mg/kg/injection, schedule: Q01DX005 (ip), vehicle: Klucel (hydroxypropylcellulose) (HPC) 95 % of control | endpoint: median survival time, dose: 25.0 mg/kg/injection, schedule: Q01DX005 (ip), vehicle: Klucel (hydroxypropylcellulose) (HPC) 98 % of control | endpoint: median survival time, dose: 50.0 mg/kg/injection, schedule: Q01DX005 (ip), vehicle: Klucel (hydroxypropylcellulose) (HPC) 100 % of control

C/C=C/c1cc2c(c(=O)o1)C(=O)[C@@H](O)[C@H](C)O2
inactive: endpoint: mean survival time, dose: 6.25 mg/kg/injection, schedule: Q01DX009 (ip), vehicle: saline with Tween-80 101 % of control | endpoint: mean survival time, dose: 12.5 mg/kg/injection, schedule: Q01DX009 (ip), vehicle: saline with Tween-80 105 % of control | endpoint: mean survival time, dose: 25.0 mg/kg/injection, schedule: Q01DX009 (ip), vehicle: saline with Tween-80 97 % of control | endpoint: mean survival time, dose: 50.0 mg/kg/injection, schedule: Q01DX009 (ip), vehicle: saline with Tween-80 101 % of control | [1] 113 % of control

CCCCNC(=O)C1CC2c3cccc4c3C(CN4)CC2N(C)C1 (stereo unspecified)
inactive: endpoint: mean survival time, dose: 50.0 mg/kg/injection, schedule: Q04DX003 (ip), vehicle: saline with Tween-80 94 % of control | [2] 88 % of control

COC(=O)Nc1cc2c3c(c1)CCCN3CCC2
inactive: [2] 104 % of control | [3] 93 % of control

CCOC(=O)Cc1cnc(SC)nc1Nc1ccc(F)cc1
inactive: endpoint: mean survival time, dose: 100.0 mg/kg/injection, schedule: Q01DX001 (ip), vehicle: saline with Tween-80 90 % of control | endpoint: mean survival time, dose: 200.0 mg/kg/injection, schedule: Q01DX001 (ip), vehicle: saline with Tween-80 95 % of control

O=C(O)C1(C(=O)O)CC2CC=CCC2C1 (stereo unspecified)
inactive: [4] 98 % of control | [5] 100 % of control | [6] 87 % of control

c1cnc(N2CC2)nn1
inactive: endpoint: mean survival time, dose: 100.0 mg/kg/injection, schedule: Q01DX001 (ip), vehicle: saline 105 % of control | endpoint: mean survival time, dose: 200.0 mg/kg/injection, schedule: Q01DX001 (ip), vehicle: saline 113 % of control

COC(=O)/C1=C/CCCCCC(=O)C1C(=O)OC (stereo unspecified)
inactive: [1] 96 % of control | [2] 96 % of control | endpoint: mean survival time, dose: 200.0 mg/kg/injection, schedule: Q01DX009 (ip), vehicle: saline with Tween-80 96 % of control | [3] 100 % of control | endpoint: mean survival time, dose: 400.0 mg/kg/injection, schedule: Q01DX009 (ip), vehicle: saline with Tween-80 93 % of control | [7] 96 % of control

COC(=O)CCC1CCCC(CCC(=O)OC)C1=O (stereo unspecified)
inactive: endpoint: mean survival time, dose: 100.0 mg/kg/injection, schedule: Q04DX003 (ip), vehicle: Klucel (hydroxypropylcellulose) (HPC) 87 % of control | endpoint: mean survival time, dose: 200.0 mg/kg/injection, schedule: Q04DX003 (ip), vehicle: Klucel (hydroxypropylcellulose) (HPC) 94 % of control | endpoint: mean survival time, dose: 400.0 mg/kg/injection, schedule: Q04DX003 (ip), vehicle: Klucel (hydroxypropylcellulose) (HPC) 92 % of control

OCCN1CCOCC1
inactive: [4] 103 % of control | endpoint: mean survival time, dose: 100.0 mg/kg/injection, schedule: Q04DX003 (ip), vehicle: saline 98 % of control | [5] 102 % of control | endpoint: mean survival time, dose: 200.0 mg/kg/injection, schedule: Q04DX003 (ip), vehicle: saline 95 % of control | [6] 103 % of control | endpoint: mean survival time, dose: 400.0 mg/kg/injection, schedule: Q04DX003 (ip), vehicle: saline 97 % of control

CCCCN(C)N=Nc1cccnc1
inactive: endpoint: mean survival time, dose: 13.0 mg/kg/injection, schedule: Q01DX009 (ip), vehicle: saline 90 % of control | endpoint: mean survival time, dose: 19.0 mg/kg/injection, schedule: Q01DX009 (ip), vehicle: saline 109 % of control | endpoint: mean survival time, dose: 28.0 mg/kg/injection, schedule: Q01DX009 (ip), vehicle: saline 109 % of control | endpoint: mean survival time, dose: 42.0 mg/kg/injection, schedule: Q01DX009 (ip), vehicle: saline 92 % of control

CCOC(=O)N(Cl)Cl
inactive: endpoint: mean survival time, dose: 12.5 mg/kg/injection, schedule: Q04DX003 (ip), vehicle: saline 102 % of control

CC(C)(C)c1ccc(OC(=S)c2ccccc2)cc1
inactive: endpoint: mean survival time, dose: 100.0 mg/kg/injection, schedule: Q04DX002 (ip), vehicle: saline with Tween-80 104 % of control | endpoint: mean survival time, dose: 200.0 mg/kg/injection, schedule: Q04DX002 (ip), vehicle: saline with Tween-80 89 % of control | endpoint: mean survival time, dose: 400.0 mg/kg/injection, schedule: Q04DX002 (ip), vehicle: saline with Tween-80 89 % of control

C=CC1C2C=CC(CC2)C1O (stereo unspecified)
inactive: [2] 98 % of control | [3] 101 % of control | [7] 104 % of control

CCOC(=O)C1=C(N)CCCC1
inactive: endpoint: mean survival time, dose: 100.0 mg/kg/injection, schedule: Q01DX001 (ip), vehicle: Klucel (hydroxypropylcellulose) (HPC) 96 % of control | endpoint: mean survival time, dose: 200.0 mg/kg/injection, schedule: Q01DX001 (ip), vehicle: Klucel (hydroxypropylcellulose) (HPC) 122 % of control | endpoint: mean survival time, dose: 400.0 mg/kg/injection, schedule: Q01DX001 (ip), vehicle: Klucel (hydroxypropylcellulose) (HPC) 96 % of control

CN(C)Cc1cc(O)cc(CN(C)C)c1O
inactive: endpoint: mean survival time, dose: 75.0 mg/kg/injection, schedule: Q01DX001 (ip), vehicle: other 98 % of control | endpoint: mean survival time, dose: 150.0 mg/kg/injection, schedule: Q01DX001 (ip), vehicle: other 96 % of control | endpoint: mean survival time, dose: 300.0 mg/kg/injection, schedule: Q01DX001 (ip), vehicle: other 98 % of control

CC1=C(c2ccccc2)C(=O)OC1=O
inactive: endpoint: mean survival time, dose: 100.0 mg/kg/injection, schedule: Q04DX002 (ip), vehicle: other 98 % of control | endpoint: mean survival time, dose: 200.0 mg/kg/injection, schedule: Q04DX002 (ip), vehicle: other 103 % of control | endpoint: mean survival time, dose: 400.0 mg/kg/injection, schedule: Q04DX002 (ip), vehicle: other 107 % of control

CC(C)COP(=O)(OCC(C)C)OCC(C)C
inactive: [2] 100 % of control | [3] 92 % of control

CC(=O)Nc1ncc2ccccc2c1-c1ccc(NC(=O)CCN(CCCl)CCCl)cc1
inactive: endpoint: mean survival time, dose: 6.25 mg/kg/injection, schedule: Q04DX003 (ip), vehicle: other 101 % of control | endpoint: mean survival time, dose: 12.5 mg/kg/injection, schedule: Q04DX003 (ip), vehicle: other 111 % of control | endpoint: mean survival time, dose: 25.0 mg/kg/injection, schedule: Q04DX003 (ip), vehicle: other 112 % of control

Cn1c(-c2ccc(/C=N\N3CCN(/N=C/c4ccc(-c5c[n+]6ccsc6n5C)cc4)CC3)cc2)c[n+]2ccsc12
inactive: endpoint: median survival time, dose: 0.75 mg/kg/injection, schedule: Q01DX005 (ip), vehicle: saline with Tween-80 113 % of control | endpoint: median survival time, dose: 1.5 mg/kg/injection, schedule: Q01DX005 (ip), vehicle: saline with Tween-80 115 % of control | endpoint: median survival time, dose: 3.0 mg/kg/injection, schedule: Q01DX005 (ip), vehicle: saline with Tween-80 116 % of control
